Measurements as given in patent publication US9131716B2, “Use of neoflavonoids for flavor modification” (SYMRISE AG, priority 2011, dated 2015).
Marks after values point to notes of the source that are not given here.

What was measured:
BGC823 cancer cell line = settings: from CN 101906090; cited from earlier work
[1] = Reduction of bitterness of a naringin solution, panel of experts; type: in vivo; settings: 100 ppm naringin
From the text: (§1) In order to quantify the reduction (i.e. the masking or decrease) of the impression of bitterness in a sample, the bitterness of a solution containing 500 ppm caffeine or 200 ppm theobromine or 100 ppm naringin or 250 ppm salicin was compared by a panel of experts in each case with a sample that contained 500 ppm caffeine or 200 ppm theobromine or 100 ppm naringin or 250 ppm salicin and additionally the amount stated in each case of a substance to be assessed (with respect to capacity for reducing bitterness) (classification: 1 [not bitter] through 10 [extremely bitter]). The evaluation, i.e. calculation of the reduction (in %) of the impression of bitterness, was based in each case on the mean values of the appraisals of the panel of experts.

[2] = Reduction of bitterness of a caffeine solution, panel of experts; type: in vivo; settings: 500 ppm caffeine; for Impression of bitterness (1-10) b) with test substance: scale 1-10
From the text: as §1

[3] = Reduction of bitterness of a theobromine solution, panel of experts; type: in vivo; settings: 300 ppm theobromine; for Impression of bitterness (1-10) b) with test substance: scale 1-10
[4] = Reduction of bitterness of a salicin solution, panel of experts; type: in vivo; settings: 250 ppm salicin, 50 ppm test substance
From the text: as §1

[5] = Reduction of bitterness/astringency of an EGCG solution as a function of time, panel of experts; type: in vivo; settings: 750 ppm EGCG + 125 ppm ascorbic acid, 50 ppm test substance
From the text: In order to quantify the reduction (i.e. the masking or decrease) of the impression of bitterness or astringency in a sample over a specified course of time, the bitterness, or astringency of a solution containing 750 ppm epigallocatechin gallate (EGCG) and 125 ppm ascorbic acid was compared by a panel of experts in each case with a sample that contained 750 ppm epigallocatechin gallate, 125 ppm ascorbic acid and additionally the amount stated in each case of a substance to be assessed (with respect to capacity for reducing bitterness), in this case a racemic mixture of compounds (7) and (8) (classification: 1 [not bitter] through 10 [extremely bitter]; or 1 [not astringent] through 10 [extremely astringent]). […] The samples were assessed by the members of the panel one after another after neutralization. The evaluation, i.e. calculation of the reduction (in %) of the impression of bitterness/astringency was based at each measurement time point in each case on the mean values of the appraisals of the panel of experts for the epigallocatechin gallate solution and the sample to be compared, containing epigallocatechin gallate and a substance to be assessed.

Caco-2 cells = settings: from Chem. Pharm. Bull. 2010, 58, 242-246; cited from earlier work
[6] = 25 ppm test substance, scale 1-10

COc1ccc(C2CC(=O)Oc3cc(O)ccc32)cc1O (centres unmarked) [(39)]
effectiveness against the BGC823 cancer cell line (BGC823 cancer cell line): effective

COc1cc(C2CC(=O)Oc3cc(O)cc(O)c32)ccc1O (racemic) [(5) + (6), 5,7-dihydroxy-4-(4-hydroxy-3-methoxyphenyl)chroman-2-one]
% reduction of the impression of bitterness ([1]; 25 ppm test substance): 49.0%
Impression of bitterness (1-10) b) with test substance [1, 6]: 3.1 ± 1.4
% reduction of the impression of bitterness ([2]; 50 ppm test substance): 23.5%
Impression of bitterness (1-10) b) with test substance ([2]; 50 ppm test substance): 3.0 ± 1.3
% reduction of the impression of bitterness ([3]; 25 ppm test substance): 30.3%
Impression of bitterness (1-10) b) with test substance ([3]; 25 ppm test substance): 3.1 ± 1.6
% reduction of the impression of bitterness [4]: 11.1%
Impression of bitterness (1-10) b) with test substance ([4]; scale 1-10): 5.9 ± 2.5

O=C1CC(c2ccc(O)cc2)c2ccc(O)cc2O1 (racemic) [(17) + (18), 7-hydroxy-4-(4-hydroxyphenyl)chroman-2-one]
% reduction of the impression of bitterness ([1]; 25 ppm test substance): 44.3%
Impression of bitterness (1-10) b) with test substance [1, 6]: 3.0 ± 1.6

O=C1CC(c2ccccc2O)c2c(O)cc(O)cc2O1 (racemic) [(1) + (2), 5,7-dihydroxy-4-(2-hydroxyphenyl)chroman-2-one]
% reduction of the impression of bitterness ([1]; 5 ppm test substance): 31.7%
Impression of bitterness (1-10) b) with test substance ([1]; 5 ppm test substance, scale 1 [not bitter] through 10 [extremely bitter]): 3.7 ± 2.6

O=C1CC(c2ccc(O)cc2)c2c(O)cc(O)cc2O1 (racemic) [(7) + (8), 5,7-dihydroxy-4-(4-hydroxyphenyl)chroman-2-one]
% reduction of the impression of bitterness ([1]; 25 ppm test substance): 48.6%
Impression of bitterness (1-10) b) with test substance [1, 6]: 2.9 ± 1.9
% reduction of the impression of astringency ([5]; time 0 s): −1%
% reduction of the impression of bitterness ([5]; time 0 s): −14%
% reduction of the impression of astringency ([5]; time 10 s): −7%
% reduction of the impression of bitterness ([5]; time 10 s): −22%*
% reduction of the impression of astringency ([5]; time 30 s): −7%
% reduction of the impression of bitterness ([5]; time 30 s): −25%*
% reduction of the impression of astringency ([5]; time 50 s): −19%
% reduction of the impression of bitterness ([5]; time 50 s): −35%*
% reduction of the impression of astringency ([5]; time 70 s): −15%
% reduction of the impression of bitterness ([5]; time 70 s): −29%
% reduction of the impression of bitterness ([2]; 25 ppm test substance): 15.5%
Impression of bitterness (1-10) b) with test substance ([2]; 25 ppm test substance): 3.4 ± 1.4
% reduction of the impression of bitterness ([3]; 10 ppm test substance): 21.7%
Impression of bitterness (1-10) b) with test substance ([3]; 10 ppm test substance): 3.6 ± 1.5

COc1cc(C2CC(=O)Oc3cc(O)cc(OC)c32)cc(OC)c1OC (centres unmarked) [(40)]
cytotoxicity against Caco-2 cells (Caco-2 cells): strong cytotoxicity

COc1cc(C2CC(=O)Oc3cc(O)ccc32)ccc1O (racemic) [(23) + (24), 7-hydroxy-4-(4-hydroxy-3-methoxyphenyl)chroman-2-one]
% reduction of the impression of bitterness ([3]; 25 ppm test substance): 22.4%
Impression of bitterness (1-10) b) with test substance ([3]; 25 ppm test substance): 3.5 ± 1.6
